Columns and labels:
[1] = Liquid; for viscosity: 101.3 kPa; for mass density: 101.33 kPa
[2] = xn = mol fraction of the nth substance listed; conditions: 101.3 kPa, Liquid

CCCCO [butan-1-ol]
[1]
Conditions	mass density [kg/m3]	viscosity [mPa·s]
293.15 K	–	2.941
298.15 K	805.9	2.62
303.15 K	–	2.255
313.15 K	–	1.754

CCC(C)O (centres undefined) [butan-2-ol]
[1]
Conditions	mass density [kg/m3]	viscosity [mPa·s]
293.15 K	–	3.619
298.15 K	802.4	3.115
303.15 K	–	2.503
313.15 K	–	1.784

CCOC(=O)OCC [diethyl carbonate]
[1]
Conditions	mass density [kg/m3]	viscosity [mPa·s]
293.15 K	–	0.795
298.15 K	969.1	0.749
303.15 K	–	0.699
313.15 K	–	0.623

CCOC(=O)OCC [diethyl carbonate] + CCCO
[2]
Conditions	viscosity [mPa·s]
293.15 K, x1 = 0.0504	1.9
293.15 K, x1 = 0.1007	1.662
293.15 K, x1 = 0.2008	1.325
293.15 K, x1 = 0.3019	1.115
293.15 K, x1 = 0.4004	0.998
293.15 K, x1 = 0.5039	0.921
293.15 K, x1 = 0.6031	0.877
293.15 K, x1 = 0.7007	0.84
293.15 K, x1 = 0.7999	0.808
293.15 K, x1 = 0.9132	0.786
293.15 K, x1 = 0.9531	0.785
293.15 K, x1 = 1	0.795
298.15 K, x1 = 0.0515	1.689
298.15 K, x1 = 0.0993	1.482
298.15 K, x1 = 0.2012	1.178
298.15 K, x1 = 0.3007	1.005
298.15 K, x1 = 0.4026	0.904
298.15 K, x1 = 0.5022	0.845
298.15 K, x1 = 0.6029	0.801
298.15 K, x1 = 0.7041	0.762
298.15 K, x1 = 0.8087	0.73
298.15 K, x1 = 0.9065	0.721
298.15 K, x1 = 0.9523	0.729
298.15 K, x1 = 1	0.749
303.15 K, x1 = 0.0464	1.494
303.15 K, x1 = 0.0963	1.315
303.15 K, x1 = 0.1968	1.062
303.15 K, x1 = 0.2981	0.907
303.15 K, x1 = 0.3987	0.818
303.15 K, x1 = 0.4958	0.771
303.15 K, x1 = 0.5991	0.732
303.15 K, x1 = 0.6967	0.703
303.15 K, x1 = 0.8063	0.678
303.15 K, x1 = 0.908	0.674
303.15 K, x1 = 0.9448	0.682
303.15 K, x1 = 1	0.699
313.15 K, x1 = 0.05	1.214
313.15 K, x1 = 0.1018	1.087
313.15 K, x1 = 0.2001	0.911
313.15 K, x1 = 0.3017	0.795
313.15 K, x1 = 0.3958	0.727
313.15 K, x1 = 0.504	0.674
313.15 K, x1 = 0.6009	0.642
313.15 K, x1 = 0.7032	0.624
313.15 K, x1 = 0.7998	0.61
313.15 K, x1 = 0.8997	0.608
313.15 K, x1 = 0.9468	0.612
313.15 K, x1 = 1	0.623

CCOC(=O)OCC [diethyl carbonate] + CCO
[2]
Conditions	viscosity [mPa·s]
293.15 K, x1 = 0.0503	1.098
293.15 K, x1 = 0.0997	1.021
293.15 K, x1 = 0.198	0.906
293.15 K, x1 = 0.3006	0.835
293.15 K, x1 = 0.4031	0.792
293.15 K, x1 = 0.5031	0.77
293.15 K, x1 = 0.6063	0.761
293.15 K, x1 = 0.6898	0.755
293.15 K, x1 = 0.8066	0.759
293.15 K, x1 = 0.895	0.77
293.15 K, x1 = 0.945	0.776
293.15 K, x1 = 1	0.795
298.15 K, x1 = 0.0496	1.05
298.15 K, x1 = 0.0973	0.943
298.15 K, x1 = 0.1963	0.835
298.15 K, x1 = 0.2985	0.771
298.15 K, x1 = 0.398	0.728
298.15 K, x1 = 0.5057	0.714
298.15 K, x1 = 0.6032	0.708
298.15 K, x1 = 0.7035	0.703
298.15 K, x1 = 0.7999	0.702
298.15 K, x1 = 0.8989	0.714
298.15 K, x1 = 0.9283	0.721
298.15 K, x1 = 1	0.749
303.15 K, x1 = 0.0491	0.899
303.15 K, x1 = 0.0984	0.834
303.15 K, x1 = 0.1952	0.754
303.15 K, x1 = 0.2961	0.704
303.15 K, x1 = 0.3946	0.673
303.15 K, x1 = 0.4859	0.661
303.15 K, x1 = 0.5995	0.649
303.15 K, x1 = 0.6959	0.648
303.15 K, x1 = 0.7862	0.649
303.15 K, x1 = 0.8911	0.661
303.15 K, x1 = 0.9254	0.669
303.15 K, x1 = 1	0.699
313.15 K, x1 = 0.0499	0.777
313.15 K, x1 = 0.102	0.74
313.15 K, x1 = 0.2038	0.676
313.15 K, x1 = 0.3116	0.636
313.15 K, x1 = 0.4001	0.613
313.15 K, x1 = 0.4971	0.6
313.15 K, x1 = 0.6023	0.59
313.15 K, x1 = 0.7058	0.591
313.15 K, x1 = 0.8065	0.596
313.15 K, x1 = 0.9022	0.608
313.15 K, x1 = 0.9518	0.616
313.15 K, x1 = 1	0.623

CCOC(=O)OCC [diethyl carbonate] + CO
[2]
Conditions	viscosity [mPa·s]
293.15 K, x1 = 0.0513	0.592
293.15 K, x1 = 0.1002	0.596
293.15 K, x1 = 0.1972	0.608
293.15 K, x1 = 0.2839	0.623
293.15 K, x1 = 0.4038	0.642
293.15 K, x1 = 0.5	0.657
293.15 K, x1 = 0.5933	0.675
293.15 K, x1 = 0.6417	0.685
293.15 K, x1 = 0.7996	0.722
293.15 K, x1 = 0.9014	0.75
293.15 K, x1 = 0.9709	0.782
293.15 K, x1 = 1	0.795
298.15 K, x1 = 0.0496	0.556
298.15 K, x1 = 0.0996	0.558
298.15 K, x1 = 0.1985	0.574
298.15 K, x1 = 0.2944	0.588
298.15 K, x1 = 0.4014	0.603
298.15 K, x1 = 0.4975	0.615
298.15 K, x1 = 0.6068	0.637
298.15 K, x1 = 0.7087	0.658
298.15 K, x1 = 0.8365	0.688
298.15 K, x1 = 0.9091	0.71
298.15 K, x1 = 0.9598	0.731
298.15 K, x1 = 1	0.749
303.15 K, x1 = 0.049	0.518
303.15 K, x1 = 0.0966	0.524
303.15 K, x1 = 0.1958	0.537
303.15 K, x1 = 0.2824	0.548
303.15 K, x1 = 0.3914	0.563
303.15 K, x1 = 0.4936	0.578
303.15 K, x1 = 0.581	0.592
303.15 K, x1 = 0.6945	0.612
303.15 K, x1 = 0.7349	0.62
303.15 K, x1 = 0.8512	0.645
303.15 K, x1 = 0.9214	0.663
303.15 K, x1 = 1	0.699
313.15 K, x1 = 0.0509	0.456
313.15 K, x1 = 0.0999	0.46
313.15 K, x1 = 0.2009	0.475
313.15 K, x1 = 0.2981	0.49
313.15 K, x1 = 0.4009	0.505
313.15 K, x1 = 0.5056	0.524
313.15 K, x1 = 0.6062	0.543
313.15 K, x1 = 0.7033	0.561
313.15 K, x1 = 0.8055	0.584
313.15 K, x1 = 0.902	0.603
313.15 K, x1 = 0.9448	0.61
313.15 K, x1 = 1	0.623

CCO [ethanol]
[1]
Conditions	mass density [kg/m3]	viscosity [mPa·s]
293.15 K	–	1.194
298.15 K	785	1.105
303.15 K	–	0.972
313.15 K	–	0.826

CCO [ethanol] + CCOC(=O)OCC
[2], x2 = 0
Conditions	viscosity [mPa·s]
293.15 K	1.194
298.15 K	1.105
303.15 K	0.972
313.15 K	0.826

CO [methanol]
[1]
Conditions	mass density [kg/m3]	viscosity [mPa·s]
293.15 K	–	0.591
298.15 K	786.6	0.553
303.15 K	–	0.514
313.15 K	–	0.45

CO [methanol] + CCOC(=O)OCC
[2], x2 = 0
Conditions	viscosity [mPa·s]
293.15 K	0.591
298.15 K	0.553
303.15 K	0.514
313.15 K	0.45

CCCCCO [pentan-1-ol]
[1]
Conditions	mass density [kg/m3]	viscosity [mPa·s]
293.15 K	–	3.979
298.15 K	810.9	3.347
303.15 K	–	2.932
313.15 K	–	2.256

CCCCCO [pentan-1-ol] + CCOC(=O)OCC
[2], x2 = 0
Conditions	viscosity [mPa·s]
293.15 K	3.979
298.15 K	3.347
303.15 K	2.932
313.15 K	2.256

CCCO [propan-1-ol]
[1]
Conditions	mass density [kg/m3]	viscosity [mPa·s]
293.15 K	–	2.198
298.15 K	799.5	1.97
303.15 K	–	1.707
313.15 K	–	1.361

CCCO [propan-1-ol] + CCOC(=O)OCC
[2], x2 = 0
Conditions	viscosity [mPa·s]
293.15 K	2.198
298.15 K	1.97
303.15 K	1.707
313.15 K	1.361

CC(C)O [propan-2-ol]
[1]
Conditions	mass density [kg/m3]	viscosity [mPa·s]
293.15 K	–	2.386
298.15 K	780.9	2.098
303.15 K	–	1.763
313.15 K	–	1.325

CC(C)O [propan-2-ol] + CCOC(=O)OCC
[2], x2 = 0
Conditions	viscosity [mPa·s]
293.15 K	2.386
298.15 K	2.098
303.15 K	1.763
313.15 K	1.325

— the NIST ThermoML archive (doi:10.1021/je0341413)
